{
  "source": "patent US20210353613A1",
  "about": "“TREATMENT OF NEUROLOGICAL DISEASE” (Aclipse One Inc., priority 2018, published 2021)",
  "format_in_all_cases": "cell-based",
  "key": {"misfolded SOD1": {"test_system": "misfolded SOD1", "assay": "Misfolded SOD1 immunocytochemistry (B8H10 antibody) in human iAstrocytes", "details": "for SOD1 misfolding in human iAstrocytes: FIGS. 7 and 8 legends, iAstrocytes from controls and C9orf72, SOD1, sporadic ALS patients; for misfolded SOD1 positive cells: 10 μM, 24 hours", "procedure": "The preparation of iAstrocytes has been described in Example 1. At Day 5, the 96 well plate was coated with fibronectin diluted 1:400 in PBS and allowed to set for cell adhesion. iAstrocytes were first washed in an appropriate volume of PBS before incubating for 5 min at 37° C. in lml of accutase. The accutase was neutralized in an appropriate volume of iAstrocyte medium and cells were collected in a 15 ml falcon and centrifuged at 200g for 4 min to form a pellet. The pellet was resuspended in an appropriate volume of medium and the cells were counted using a Burker hemocytometer. The cells were seeded at the desired density and were left for 24 hours to adhere. […]\nAt Day 7, iAstrocytes were fixed in 4% PFA. These were then stained with misfolded SOD1 antibody (B8H10), CD44 to identify cell area and DAPI. Columbus analysis software was used to quantify immunocytochemistry images. In each condition, the number of nuclei was established. In astrocytes stained for misfolded SOD1 protein aggregates, the number, intensity and area of misfolded SOD1 aggregates within the nucleus and surrounding perinuclear area were quantified as well as the percentage of cells positive for misfolded SOD1 accumulation."}, "[1]": {"test_system": "mouse motor neuron (MN) survival", "assay": "Co-culture of patient iAstrocytes with mouse Hb9-GFP motor neurons: MN survival", "details": "for mouse Hb9GFP+ motor neuron rescue: percentage of motor neuron survival: FIG. 4, 10uM, 3 days after administration, compared to vehicle (DMSO), sALS, SOD1, C9orf72 iAstrocytes", "procedure": "Induced astrocytes from control or ALS patients were used in a co-culture assay to determine their effect on mouse motor neuron (MN) survival. Mouse embryonic stem cell-derived motor neurons expressing green fluorescence protein (GFP) under the control of the HB9 promoter were sorted and added to iAstrocytes from patients and controls. […] The survival of mouse MNs was monitored on Day 1 and 3 with confocal image acquisition.\nThe MN survival on Day 3 was evaluated as a percentage of survived MN cells observed on Day 1."}, "induced MN cells": {"test_system": "induced MN cells", "assay": "Co-culture of iAstrocytes with human induced motor neurons from the same donors: MN survival", "details": "for MN survival on Day 3: 10 μM", "procedure": "Induced Astrocytes from healthy controls or ALS patients were also used in a co-culture assay to determine their effect on the survival of induced MN cells from the same healthy controls or ALS patients.\nThe preparation of iAstrocytes and induced MN cells has been described in Example 1. […] The MN survival on Day 3 was evaluated as a percentage of survived MN cells observed on Day 1."}, "[2]": {"details": "iAstrocytes from three ALS patients with C9orf72 mutation, mouse MNs"}, "[3]": {"details": "iAstrocytes and induced MNs from ALS patient with C9orf72 mutation"}},
  "note": "Entries after “also recorded” stand apart in the source; their conditions may differ.",
  "data": [
    {"smiles": "CN1CCc2cccc3c2[C@@H]1Cc1ccc(O)c(O)c1-3", "note": "[(6aS)-6-methyl-5,6,6a,7-tetrahydro-4H-dibenzo[de,g]quinoline-10,11-diol]", "values": [
      {"measurement": "percentage of misfolded SOD1 perinuclear aggregates (DMSO = 100%)", "setting": "misfolded SOD1; FIG. 9, 10uM, 48 hours, iAstrocytes of sALS, SOD1, C9orf72 patients and controls, listed as (6a5)-6-methyl-5,6,6a,7-tetrahydro-4H-dibenzo[de,g]quinoline-10,11-diol", "result": "reduction of misfolded SOD1 in all patient lines treated; also recorded: significant reduction in misfolded SOD1 in 6 different patient lines"},
      {"measurement": "SOD1 misfolding in human iAstrocytes", "setting": "misfolded SOD1", "result": "Reduced SOD1 misfolding"},
      {"measurement": "misfolded SOD1 positive cells", "setting": "misfolded SOD1; SOD1 astrocytes compared with other cell types", "result": "greatest decrease in SOD1 astrocytes"},
      {"measurement": "misfolded SOD1 positive cells", "setting": "misfolded SOD1; all cell types (control, C9orf72, SOD1, sporadic iAstrocytes)", "result": "reduction of misfolded SOD1 positive cells across all cell types"},
      {"measurement": "mouse Hb9GFP+ motor neuron rescue: percentage of motor neuron survival", "setting": "[1]", "result": "increase in percentage of motor neuron survival"},
      {"measurement": "MN survival on Day 3 (percentage of survived MN cells observed on Day 1)", "setting": "[1]; iAstrocytes from ALS patients with C9orf72 mutation, mouse MNs, untreated no more than 33%", "result": "up to 38%"},
      {"measurement": "survival of MN cells on Day 3", "setting": "[1]; iAstrocytes from ALS patients with SOD1 mutation, mouse MNs", "result": "most significant improvement"},
      {"measurement": "survival of MN cells on Day 3", "setting": "[1]; [2]", "result": "significantly improved"},
      {"measurement": "MN survival on Day 3", "setting": "induced MN cells; [3]", "result": "the most significant outcome"},
      {"measurement": "toxicity of astrocytes to MN cells (MN survival on Day 3)", "setting": "induced MN cells; iAstrocytes and induced MNs from ALS patient with SOD1 mutation", "result": "most effectively dampened the toxicity of SOD1-derived astrocytes"},
      {"measurement": "MN survival on Day 3", "setting": "induced MN cells; iAstrocytes and induced MNs from sALS patients", "result": "beneficial at reducing toxicity caused by iAstrocytes from some sporadic patients over others"}
    ]},
    {"smiles": "Nc1nc2ccc(OC(F)(F)F)cc2s1", "note": "[riluzole, reference compound]", "values": [
      {"measurement": "SOD1 misfolding in human iAstrocytes", "setting": "misfolded SOD1", "result": "Reduced SOD1 misfolding"}
    ]},
    {"smiles": "C=C1CC[C@@H]2[C@](C)(CO)[C@H](O)CC[C@@]2(C)[C@@H]1C/C=C1/C(=O)OC[C@H]1O", "note": "[andrographolide, reference compound]", "values": [
      {"measurement": "SOD1 misfolding in human iAstrocytes", "setting": "misfolded SOD1", "result": "Reduced SOD1 misfolding"},
      {"measurement": "mouse Hb9GFP+ motor neuron rescue: percentage of motor neuron survival", "setting": "[1]", "result": "increase in percentage of motor neuron survival"},
      {"measurement": "survival of MN cells on Day 3", "setting": "[1]; [2]", "result": "significantly improved"},
      {"measurement": "survival of MN cells on Day 3", "setting": "[1]; iAstrocytes from three sporadic ALS (sALS) patients, mouse MNs", "result": "most significantly improved"},
      {"measurement": "MN survival on Day 3", "setting": "induced MN cells; [3]", "result": "the most significant outcome"}
    ]}
  ]
}
